# Test results published in patent US20240293413A1, “COMPOUND AND METHOD FOR TREATING CHEMOTHERAPY-RELATED GASTROINTESTINAL SIDE EFFECTS” (ONQUALITY PHARMACEUTICALS CHINA LTD., priority 2021, published 2024).
# Tests used:
# [1] = tested on: constipation caused by a chemotherapeutic agent in Balb/c mice; assay: Examples 406-443 (Table 8): various administration modes of the CDK inhibitor, relief of constipation caused by a chemotherapeutic agent; assay type: in vivo
# Source text: Balb/c mice were fed for 1 week, and then divided into groups. The experiment was divided into a control group, a chemotherapeutic agent group, CDK inhibitor groups (including an oral administration group of a CDK inhibitor, an intravenous injection group of a CDK inhibitor, an intraperitoneal injection group of a CDK inhibitor, an intramuscular injection group of a CDK inhibitor, a local administration group of a CDK inhibitor), each of which comprised 10 mice, to perform the administration experiment, for which the administration dosage, mode, time and frequency were shown in Table 8. The control group: being administered with the same solvent as that used in the CDK inhibitor group (the time and mode were shown in Table 8), and then being injected/intragastrically administered with the same solvent as that used in the chemotherapeutic agent group (the administration mode was shown in Table 8): the chemotherapeutic agent group: being administered with the same solvent as that used in the CDK inhibitor group (the time and mode were shown in Table 8), and then being injected/intragastrically administered with the chemotherapeutic agent (the type, administration mode and dosage were shown in Table 8): the oral administration group of the CDK inhibitor: being intragastrically administered with the CDK inhibitor (the time was shown in Table 8), and then being administered with the chemotherapeutic agent (the mode and dosage were shown in Table 8): the intravenous injection group of the CDK inhibitor: being injected with the CDK inhibitor through tail vein (the time was shown in Table 8), and then being administered with the chemotherapeutic agent (the mode and dosage were shown in Table 8): the intraperitoneal injection group of the CDK inhibitor: being intraperitoneally injected with the CDK inhibitor (the time was shown in Table 8), and then being administered with the chemotherapeutic agent (the mode and dosage were shown in Table 8): the intramuscular injection group of the CDK inhibitor: being intramuscularly injected with the CDK inhibitor (the time was shown in Table 8), and then being administered with the chemotherapeutic agent (the mode and dosage were shown in Table 8); and the local administration group of the CDK inhibitor: the hair on the abdomen of mice was shaved (about 2 cm*2 cm), being applied with the CDK inhibitor (the time was shown in Table 8), and then being administered with the chemotherapeutic agent (the mode and dosage were shown in Table 8).
# Feces reduction rate (%)=(the control group−the chemotherapeutic agent group or the CDK inhibitor group)/the control group*100%
# The feces amount of mice within 3 hours was observed and recorded every day.
# [2] = tested on: Chemotherapeutic agent-caused constipation models of Balb/c mice; assay: Examples 272-342 (Table 5): oral CDK inhibitor, relief of constipation caused by a chemotherapeutic agent; assay type: in vivo; details: CDK inhibitor oral 150 mg/kg single
# In short: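 Feces reduction rate (%) = (control − treated)/control × 100%, based on the 3-hour feces amount recorded each day. Groups of 10 Balb/c mice received solvent, chemotherapeutic agent alone, or an oral CDK inhibitor before the chemotherapeutic agent.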
# 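Also: percent of treated mice relieved versus chemotherapy group by feces reduction rate.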
smiles,measurement,setting,value
CC(=O)c1c(C)c2cnc(Nc3ccc(N4CCNCC4)cn3)nc2n(C2CCCC2)c1=O [Palbociclib],Relative remission rate of oral administration,"[1]; Example 406, Doxorubicin (Dox) intraperitoneal injection 12 mg/kg single, CDK inhibitor oral 150 mg/kg single, 0.5 h before, cycle 8 days",20%
same,Relative remission rate of other administration mode,"[1]; Example 407, Doxorubicin (Dox) intraperitoneal injection 12 mg/kg single, CDK inhibitor intravenous injection 150 mg/kg single, 4 h before, cycle 8 days",10%
same,Relative remission rate of oral administration,"[1]; Example 407, Doxorubicin (Dox) intraperitoneal injection 12 mg/kg single, CDK inhibitor oral 150 mg/kg single, 4 h before, cycle 8 days",30%
same,Relative remission rate of other administration mode,"[1]; Example 408, Doxorubicin (Dox) intraperitoneal injection 12 mg/kg single, CDK inhibitor intravenous injection 150 mg/kg single, 8 h before, cycle 8 days",10%
same,Relative remission rate of oral administration,"[1]; Example 408, Doxorubicin (Dox) intraperitoneal injection 12 mg/kg single, CDK inhibitor oral 150 mg/kg single, 8 h before, cycle 8 days",30%
same,Relative remission rate of other administration mode,"[1]; Example 409, Doxorubicin (Dox) intraperitoneal injection 12 mg/kg single, CDK inhibitor intravenous injection 150 mg/kg single, 12 h before, cycle 8 days",20%
same,Relative remission rate of oral administration,"[1]; Example 409, Doxorubicin (Dox) intraperitoneal injection 12 mg/kg single, CDK inhibitor oral 150 mg/kg single, 12 h before, cycle 8 days",50%
same,Relative remission rate of other administration mode,"[1]; Example 410, Doxorubicin (Dox) intraperitoneal injection 12 mg/kg single, CDK inhibitor intravenous injection 150 mg/kg single, 24 h before, cycle 8 days",20%
same,Relative remission rate of oral administration,"[1]; Example 410, Doxorubicin (Dox) intraperitoneal injection 12 mg/kg single, CDK inhibitor oral 150 mg/kg single, 24 h before, cycle 8 days",40%
same,Relative remission rate of other administration mode,"[1]; Example 415, Etoposide (Etop1) intraperitoneal injection 100 mg/kg single, CDK inhibitor intravenous injection 150 mg/kg single, 0.5 h before, cycle 8 days",10%
same,Relative remission rate of oral administration,"[1]; Example 415, Etoposide (Etop1) intraperitoneal injection 100 mg/kg single, CDK inhibitor oral 150 mg/kg single, 0.5 h before, cycle 8 days",20%
same,Relative remission rate of other administration mode,"[1]; Example 416, Etoposide (Etop1) intraperitoneal injection 100 mg/kg single, CDK inhibitor intravenous injection 150 mg/kg single, 4 h before, cycle 8 days",20%
same,Relative remission rate of oral administration,"[1]; Example 416, Etoposide (Etop1) intraperitoneal injection 100 mg/kg single, CDK inhibitor oral 150 mg/kg single, 4 h before, cycle 8 days",40%
same,Relative remission rate of other administration mode,"[1]; Example 417, Etoposide (Etop1) intraperitoneal injection 100 mg/kg single, CDK inhibitor intravenous injection 150 mg/kg single, 8 h before, cycle 8 days",20%
same,Relative remission rate of oral administration,"[1]; Example 417, Etoposide (Etop1) intraperitoneal injection 100 mg/kg single, CDK inhibitor oral 150 mg/kg single, 8 h before, cycle 8 days",40%
same,Relative remission rate of other administration mode,"[1]; Example 418, Etoposide (Etop1) intraperitoneal injection 100 mg/kg single, CDK inhibitor intravenous injection 150 mg/kg single, 12 h before, cycle 8 days",10%
same,Relative remission rate of oral administration,"[1]; Example 418, Etoposide (Etop1) intraperitoneal injection 100 mg/kg single, CDK inhibitor oral 150 mg/kg single, 12 h before, cycle 8 days",30%
same,Relative remission rate of other administration mode,"[1]; Example 419, Etoposide (Etop1) intraperitoneal injection 100 mg/kg single, CDK inhibitor intravenous injection 150 mg/kg single, 24 h before, cycle 8 days",10%
same,Relative remission rate of oral administration,"[1]; Example 419, Etoposide (Etop1) intraperitoneal injection 100 mg/kg single, CDK inhibitor oral 150 mg/kg single, 24 h before, cycle 8 days",30%
same,Relative remission rate of other administration mode,"[1]; Example 422, Etoposide and cisplatin intravenous injection 50 and 5 mg/kg single, CDK inhibitor intravenous injection 150 mg/kg single, 0.5 h before, cycle 7 days",10%
same,Relative remission rate of oral administration,"[1]; Example 422, Etoposide and cisplatin intravenous injection 50 and 5 mg/kg single, CDK inhibitor oral 150 mg/kg single, 0.5 h before, cycle 7 days",40%
same,Relative remission rate of other administration mode,"[1]; Example 423, Etoposide and cisplatin intravenous injection 50 and 5 mg/kg single, CDK inhibitor intravenous injection 150 mg/kg single, 24 h before, cycle 7 days",20%
same,Relative remission rate of oral administration,"[1]; Example 423, Etoposide and cisplatin intravenous injection 50 and 5 mg/kg single, CDK inhibitor oral 150 mg/kg single, 24 h before, cycle 7 days",60%
same,Relative remission rate of other administration mode,"[1]; Example 437, Gemcitabine intravenous injection 120 mg/kg single, CDK inhibitor intravenous injection 200 mg/kg single, 12 h before, cycle 8 days",20%
same,Relative remission rate of oral administration,"[1]; Example 437, Gemcitabine intravenous injection 120 mg/kg single, CDK inhibitor oral 200 mg/kg single, 12 h before, cycle 8 days",50%
same,Relative remission rate,"[2]; Example 293, Fluorouracil (5-Fu) oral administration 300 mg/kg single, 8 h before, cycle 7 days",50%
same,Relative remission rate,"[2]; Example 304, Irinotecan (CPT-11) intraperitoneal injection 260 mg/kg single, 0.5 h before, cycle 7 days",40%
same,Relative remission rate,"[2]; Example 305, Irinotecan (CPT-11) intraperitoneal injection 260 mg/kg single, 4 h before, cycle 7 days",60%
same,Relative remission rate,"[2]; Example 306, Irinotecan (CPT-11) intraperitoneal injection 260 mg/kg single, 8 h before, cycle 7 days",80%
same,Relative remission rate,"[2]; Example 307, Irinotecan (CPT-11) intraperitoneal injection 260 mg/kg single, 12 h before, cycle 7 days",70%
same,Relative remission rate,"[2]; Example 308, Irinotecan (CPT-11) intraperitoneal injection 260 mg/kg single, 24 h before, cycle 7 days",30%
same,Relative remission rate,"[2]; Example 309, Irinotecan (CPT-11) intraperitoneal injection 260 mg/kg single, 48 h before, cycle 7 days",0%
same,Relative remission rate,"[2]; Example 333, Cytarabine (Ara-C) intravenous injection 600 mg/kg single, 6 h before, cycle 8 days",50%
